Assay results taken from EP3575287A1, “INHIBITORS OF N-ACYLPHOSPHATIDYLETHANOLAMINE PHOSPHOLIPASE D (NAPE-PLD)” (Universiteit Leiden, priority 2018, dated 2019).

Target: T1, human NAPE-PLD (Homo sapiens, UniProt Q6IQ20)
T1 construct: Full length human cDNA NAPE-PLD was obtained from Natsuo Ueda; made in house; host or cells: HEK293T cells, transient transfection (pcDNA3.1); membrane fraction used
Assay: In vitro NAPE-PLD activity assay
Format: biochemical
Settings: membrane protein fraction of HEK293T cells overexpressing human NAPE-PLD; substrate PED6 1 µM; 30 minutes preincubation at 37 °C
Experimental: Full length human cDNA NAPE-PLD was obtained from Natsuo Ueda^1 and cloned into mammalian expression vector pcDNA3.1, containing a C-terminal Flag-tag and genes for ampicillin and neomycin resistance. All plasmids were grown in XL-10 Z-competent cells and prepped (Maxi Prep, Qiagen). Sequence analysis for the confirmation of the sequences was performed at the Leiden Genome Technology Centre.
HEK293T were cultured at 37 °C and 7% CO2 in DMEM (Sigma Aldrich, D6546) with glutamax, penicillin (100 µg/ml), streptomycin (100 µg/ml) and 10% New Born Calf Serum iron supplemented (Hyclone SH30072.03). Cells were passaged twice a week to appropriate confluence.
24 hours before transfection 10^7 cells are seeded on a 15 cm dish. Two hours before transfection medium is refreshed, low volume. Transfection is performed with PEI in a ratio of 3:1 with human NAPE-PLD or Mock pcDNA3.1 Neo, 20 µg per dish. Medium is refreshed after 24 hours and cells are harvested after 72 hours.
Cell pellets are re-suspended in lysis buffer: 20 mM Hepes, 2 mM DTT, 0.25 M sucrose, 1 mM MgCl2, 2.5 U/ml benzonase and incubated 30 minutes on ice. The cytosolic fraction (supernatant) is separated from the membranes by ultra-centrifugation (32000 rpm for 30 minutes 100,000g). The pellet is resuspended in storage buffer: 20 mM Hepes, 2 mM DTT (membrane fraction). All samples are stored at -80°C. Enzyme concentrations are determined using a Bradford assay.
The NAPE-PLD activity assay is based on a previously reported method with small alterations.^2 The membrane protein fraction from transient overexpression of human NAPE-PLD in HEK293T cells was diluted to 0.4 mg/ml in assay buffer: 50 mM Tris-HCl (pH 7.5), 0.02% Triton X-100, 150 mM NaCl. The substrate PED6 (Invitrogen) 1 mM stock was consecutively diluted in DMSO (10x) and in assay buffer (10x) to make a 10 µM working solution. […] The assay is performed in a dark Greiner 96 wells plate, end volume 100 µl. The compound or DMSO is incubated with membrane protein lysate (final concentration 0.04 mg/ml) for 30 minutes at 37 °C. […] Mock lysate with DMSO is used for background substraction. IC50 curves are generated used Graphpad Prism v6.

T1 sequence (Q6IQ20 whole entry): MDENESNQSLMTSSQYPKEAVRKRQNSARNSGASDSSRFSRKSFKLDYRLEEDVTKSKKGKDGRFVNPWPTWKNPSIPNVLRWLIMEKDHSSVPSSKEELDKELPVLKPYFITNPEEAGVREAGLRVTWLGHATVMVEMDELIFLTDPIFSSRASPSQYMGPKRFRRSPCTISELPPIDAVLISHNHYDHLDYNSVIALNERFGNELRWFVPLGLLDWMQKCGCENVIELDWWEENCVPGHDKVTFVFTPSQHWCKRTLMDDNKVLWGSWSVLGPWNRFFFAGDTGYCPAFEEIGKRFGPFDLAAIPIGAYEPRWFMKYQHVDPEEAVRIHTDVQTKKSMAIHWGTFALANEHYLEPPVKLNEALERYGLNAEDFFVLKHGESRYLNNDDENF

| Compound | IC50 |
| --- | --- |
| CN(CCc1ccccc1)c1nc(Oc2cccnc2)cc(C(=O)NCC2CC2)n1 [Example 1, N-(cyclopropylmethyl)-2-(methyl(phenethyl)amino)-6-(pyridin-3-yloxy)pyrimidine-4-carboxamide] | 5250 nM |
| CN(CCc1ccccc1)c1nc(C(=O)NCC2CC2)cc(N2CCC(F)(F)CC2)n1 [Example 2, N-(cyclopropylmethyl)-6-(4,4-difluoropiperidin-1-yl)-2-(methyl(phenethyl)amino)pyrimidine-4-carboxamide] | 8910 nM |
| CN(CCc1ccccc1)c1nc(C(=O)NCC2CC2)cc(N2CCCCC2)n1 [Example 3, N-(cyclopropylmethyl)-2-(methyl(phenethyl)amino)-6-(piperidin-1-yl)pyrimidine-4-carboxamide] | 646 nM |
| CCNC(=O)c1cc(N2CCOCC2)nc(N(C)CCc2ccccc2)n1 [Example 4, N-ethyl-2-(methyl (phenethyl)amino)-6-morpholinopyrimidine-4-carboxamide] | 4570 nM |
| CN(CCc1ccccc1)c1nc(C(=O)NCC2CC2)cc(N2CCSCC2)n1 [Example 5, N-(cyclopropylmethyl)-2-(methyl(phenethyl)amino)-6-thiomorpholinopyrimidine-4-carboxamide] | 2630 nM |
| CC(C)CNC(=O)c1cc(N2CCOCC2)nc(N(C)CCc2ccccc2)n1 [Example 6, N-isobutyl-2-(methyl(phenethyl)amino)-6-morpholinopyrimidine-4-carboxamide] | 7080 nM |
| CN1CCN(c2cc(C(=O)NCC3CC3)nc(N(C)CCc3ccccc3)n2)CC1 [Example 7, N-(cyclopropylmethyl)-2-(methyl(phenethyl)amino)-6-(4-methylpiperazin-1-yl)pyrimidine-4-carboxamide] | 1580 nM |
| C#CCNC(=O)c1cc(N2CCOCC2)nc(N(C)CCc2ccccc2)n1 [Example 8, 2-(methyl(phenethyl)amino)-6-morpholino-N-(prop-2-yn-1-yl)pyrimidine-4-carboxamide] | 912 nM |
| CCCCNC(=O)c1cc(N2CCOCC2)nc(N(C)CCc2ccccc2)n1 [Example 9, N-butyl-2-(methyl (phenethyl)amino)-6-morpholinopyrimidine-4-carboxamide] | 6760 nM |
| CN(CCc1ccccc1)c1nc(C(=O)NCC2CC2)cc(N2CCNCC2)n1 [Example 11, N-(cyclopropylmethyl)-2-(methyl(phenethyl)amino)-6-(piperazin-1-yl)pyrimidine-4-carboxamide] | 5370 nM |
| CC(=O)N1CCN(c2cc(C(=O)NCC3CC3)nc(N(C)CCc3ccccc3)n2)CC1 [Example 12, 6-(4-acetylpiperazin-1-yl)-N-(cyclopropylmethyl)-2-(methyl(phenethyl)amino)pyrimidine-4-carboxamide] | 1200 nM |
| CN(CCc1ccccc1)c1nc(C(=O)NC2CC2)cc(N2CCOCC2)n1 [Example 13, N-cyclopropyl-2-(methyl (phenethyl)amino)-6-morpholinopyrimidine-4-carboxamide] | 3720 nM |
| CCCNC(=O)c1cc(N2CCOCC2)nc(N(C)CCc2ccccc2)n1 [Example 14, N-propyl-2-(methyl (phenethyl)amino)-6-morpholino-pyrimidine-4-carboxamide] | 1820 nM |
| CN(CCc1ccccc1)c1nc(C(=O)NCC2CC2)cc(N2CCN(C(=O)c3ccccc3)CC2)n1 [Example 16, 6-(4-benzoylpiperazin-1-yl)-N-(cyclopropylmethyl)-2-(methyl(phenethyl)amino)pyrimidine-4-carboxamide] | 7760 nM |
| CN(CCc1ccccc1)c1nc(C(=O)NCC2CC2)cc(N2CCCC2)n1 [Example 17, N-(cyclopropylmethyl)-2-(methyl(phenethyl)amino)-6-(pyrrolidin-1-yl)pyrimidine-4-carboxamide] | 224 nM |
| CCN(CC)c1cc(C(=O)NCC2CC2)nc(N(C)CCc2ccccc2)n1 [Example 20, N-(cyclopropylmethyl)-6-(diethylamino)-2-(methyl(phenethyl)amino)pyrimidine-4-carboxamide] | 501 nM |
| CNc1cc(C(=O)NCC2CC2)nc(N(C)CCc2ccccc2)n1 [Example 21, N-(cyclopropylmethyl)-2-(methyl(phenethyl)amino)-6-(methylamino)pyrimidine-4-carboxamide] | 851 nM |

| Compound | IC50 |
| --- | --- |
| CN(CCc1cccs1)c1nc(C(=O)NCC2CC2)cc(N2CCOCC2)n1 [Example 22, N-(cyclopropylmethyl)-2-(methyl(2-(thiophen-2-yl)ethyl)amino)-6-morpholinopyrimidine-4-carboxamide] | 1070 nM |
| CN(CCc1ccccc1)c1nc(C(=O)NCC2CC2)cc(-n2ccnc2)n1 [Example 23, N-(cyclopropylmethyl)-6-(1H-imidazol-1-yl)-2-(methyl(phenethyl)amino)pyrimidine-4-carboxamide] | 2240 nM |
| CN(CCc1ccccc1)c1nc(C(=O)NCC2CC2)cc(-n2cccn2)n1 [Example 24, N-(cyclopropylmethyl)-2-(methyl(phenethyl)amino)-6-(1H-pyrazol-1-yl)pyrimidine-4-carboxamide] | 1200 nM |
| CN(CCc1ccccc1)c1nc(C(=O)NCC2CC2)cc(N2CCC2)n1 [Example 25, N-(cyclopropylmethyl)-2-(methyl(phenethyl)amino)-6-(azetidin-1-yl)pyrimidine-4-carboxamide] | 427 nM |
| CN(CCc1ccccc1)c1nc(C(=O)NCC2CC2)cc(N2CC3(COC3)C2)n1 [Example 26, N-(cyclopropylmethyl)-2-(methyl(phenethyl)amino)-6-(2-oxa-6-azaspiro[3.3]heptan-6-yl)pyrimidine-4-carboxamide] | 1660 nM |
| CN(CCc1ccccc1)c1cc(C(=O)NCC2CC2)nc(N(C)CCc2ccccc2)n1 [Example 27, N-(cyclopropylmethyl)-2,6-bis(methyl(phenethyl)amino)pyrimidine-4-carboxamide] | 155 nM |
| CN(Cc1ccccc1)c1cc(C(=O)NCC2CC2)nc(N(C)CCc2ccccc2)n1 [Example 28, N-(cyclopropylmethyl)-2-(methyl(phenethyl)amino)-6-(benzyl(methyl)amino)pyrimidine-4-carboxamide] | 1100 nM |
| CN(CCc1ccccc1)c1nc(C(=O)NCC2CC2)cc(N2CCC(c3ccccc3)C2)n1 (stereo not drawn) [Example 29, N-(cyclopropylmethyl)-2-(methyl(phenethyl)amino)-6-(3-phenylpyrrolidin-1-yl)pyrimidine-4-carboxamide] | 1410 nM |
| CN(CCO)c1cc(C(=O)NCC2CC2)nc(N(C)CCc2ccccc2)n1 [Example 30, N-(cyclopropylmethyl)-6-((2-hydroxyethyl)(methyl)amino)-2-(methyl(phenethyl)amino)pyrimidine-4-carboxamide] | 1000 nM |
| CN(CCc1ccccc1)c1nc(C(=O)NCC2CC2)cc(N2CCC(F)(F)C2)n1 [Example 31, N-(cyclopropylmethyl)-6-(3,3-difluoropyrrolidin-1-yl)-2-(methyl(phenethyl)amino)pyrimidine-4-carboxamide] | 1170 nM |
| CN(CCc1ccccc1)c1nc(C(=O)NCC2CC2)cc(N2CCC(O)C2)n1 (stereo not drawn) [Example 32, N-(cyclopropylmethyl)-6-(3-hydroxypyrrolidin-1-yl)-2-(methyl(phenethyl)amino)pyrimidine-4-carboxamide] | 224 nM |
| CN(CCc1ccccc1)c1nc(C(=O)NCC2CC2)cc(N2CCC(N(C)C)C2)n1 (stereo not drawn) [Example 33, N-(cyclopropylmethyl)-6-(3-(dimethylamino)pyrrolidin-1-yl)-2-(methyl(phenethyl)amino)pyrimidine-4-carboxamide] | 9550 nM |
| COC1CCN(c2cc(C(=O)NCC3CC3)nc(N(C)CCc3ccccc3)n2)C1 (stereo not drawn) [Example 34, N-(cyclopropylmethyl)-6-(3-methoxypyrrolidin-1-yl)-2-(methyl(phenethyl)amino)pyrimidine-4-carboxamide] | 708 nM |
| O=C(NCC1CC1)c1cc(N2CCOCC2)nc(N2CCN(Cc3ccccc3)C(c3ccccc3)C2)n1 (stereo not drawn) [Example 35, 2-(4-benzyl-3-phenylpiperazin-1-yl)-N-(cyclopropylmethyl)-6-morpholinopyrimidine-4-carboxamide] | 1000 nM |
| CN(CCc1ccccc1)c1nc(C(=O)NCCO)cc(N2CCOCC2)n1 [Example 36, N-(2-hydroxyethyl)-2-(methyl(phenethyl)amino)-6-morpholinopyrimidine-4-carboxamide] | 5010 nM |
| O=C(NCC1CC1)c1cc(N2CCOCC2)nc(N2CCOC(c3ccccc3)C2)n1 (stereo not drawn) [Example 37, N-(cyclopropylmethyl)-6-morpholino-2-(2-phenylmorpholino)pyrimidine-4-carboxamide] | 1230 nM |
